# Measurements published in US20060116390A1, “Hepatitis c virus inhibitors” (priority 2003, published 2006).
# pIC50: −log10 of the molar value. Where two headings read alike, the source gives them in different places.
# Tested on: HCV proteins in Rep5.1 cells (replicon cell line)
# Test: Inhibitory activity of HCV: cell-based ELISA in replicon cell line Rep5.1 (decrease of HCV proteins)
# Parameters: species or system hepatitis C virus
# Conditions: Hepatitis C virus, 72 h, Rep5.1 cells, 72 hours with drug
# Outline: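 Rep5.1 replicon cells (5000/well, DMEM-10 with 500 μg/ml G418) were given serially diluted drug 4 h after seeding. After 72 h, cells were fixed in methanol/acetone and HCV proteins detected by cell-based ELISA using replicon-specific patient plasma antibodies. IC50 is the concentration giving 50% protein decrease versus the no-drug control.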
# [1] = concentration at which 50% of HCV proteins was decreased, Table 2, read-out: IC50
# [2] = decrease of HCV proteins measured by HCV antibody, Table 1, read-out: Level (IC50 values classified)
compound,measurement,setting,value
"CC1=C(C(=O)OCCOC2CCc3ccccc32)CNC(=S)N1 (stereo not shown) [Compound 125, 6-methyl-2-thioxo-1,2,3,4-tetrahydro-pyrimidine-5-carboxylic acid 2-(indan-1-yloxy)-ethyl ester]",pIC50,[1],5.70
same,pIC50,[2],5.00 to 6.00
"COc1ccc(Cl)cc1CCOC(=O)C1=C(C)NC(=S)NC1CF (stereo not shown) [84′, 4-fluoromethyl-6-methyl-2-thioxo-1,2,3,4-tetrahydro-pyrimidine-5-carboxylic acid 2-(5-chloro-2-methoxy-phenyl)-ethyl ester]",pIC50,[1],6.05
same,pIC50,[2],> 6.00
"CCCCCCC(C)OC(=O)C1=C(C)NC(=S)NC1 (stereo not shown) [Compound 35, 6-methyl-2-thioxo-1,2,3,4-tetrahydro-pyrimidine-5-carboxylic acid 1-methyl-heptyl ester]",pIC50,[1],> 6.30
same,pIC50,[2],> 6.00
"CC1=C(C(=O)OCc2ccsc2)C(CF)NC(=S)N1 (stereo not shown) [Compound 253, 4-fluoromethyl-6-methyl-2-thioxo-1,2,3,4-tetrahydro-pyrimidine-5-carboxylic acid thiophen-3-ylmethyl ester]",pIC50,[1],4.89
same,pIC50,[2],4.70 to 5.00
"CCOC(=O)CCCCCOC(=O)C1=C(C)NC(=S)NC1 [Compound 197, 6-methyl-2-thioxo-1,2,3,4-tetrahydro-pyrimidine-5-carboxylic acid 5-ethoxycarbonyl-pentyl ester]",pIC50,[1],< 4.00
same,pIC50,[2],< 4.70
"C=CCN(CC)c1ccc(CCOC(=O)C2=C(C)NC(=S)NC2CO)cc1[N+](=O)[O-] (stereo not shown) [97″, 4-Hydroxymethyl-6-methyl-2-thioxo-1,2,3,4-tetrahydro-pyrimidine-5-carboxylic acid 2-[4-(allyl-ethyl-amino)-3-nitro-phenyl]-ethyl ester]",pIC50,[1],6.22
same,pIC50,[2],> 6.00
"O=C(OCCc1ccsc1)C1=C(CF)NC(=S)NC1 [57′, 6-fluoromethyl-2-thioxo-1,2,3,4-tetrahydro-pyrimidine-5-carboxylic acid 2-thiophen-3-yl-ethyl ester]",pIC50,[1],5.00
same,pIC50,[2],5.00 to 6.00
"CC1=C(C(=O)OCc2sccc2C)CNC(=S)N1 [Compound 202, 6-methyl-2-thioxo-1,2,3,4-tetrahydro-pyrimidine-5-carboxylic acid 3-methyl-thiophen-2-ylmethyl ester]",pIC50,[1],5.05
same,pIC50,[2],5.00 to 6.00
"CC1=C(C(=O)OCCc2cc(F)cc(F)c2)C(CF)NC(=S)N1 (stereo not shown) [85′, 4-fluoromethyl-6-methyl-2-thioxo-1,2,3,4-tetrahydro-pyrimidine-5-carboxylic acid 2-(3,5-difluoro-phenyl)-ethyl ester]",pIC50,[1],5.57
same,pIC50,[2],5.00 to 6.00
"CC1=C(C(=O)OCCCCCC(=O)O)CNC(=S)N1 [18′, 6-methyl-2-thioxo-1,2,3,4-tetrahydro-pyrimidine-5-carboxylic acid 5-carboxy-pentyl ester]",pIC50,[1],< 4.00
same,pIC50,[2],< 4.70
"CCOc1ccccc1CCOC(=O)C1=C(C)NC(=S)NC1 [Compound 273, 6-methyl-2-thioxo-1,2,3,4-tetrahydro-pyrimidine-5-carboxylic acid 2-(2-ethoxy-phenyl)-ethyl ester]",pIC50,[1],6.10
same,pIC50,[2],> 6.00
"CC1=C(C(=O)OCc2cc(F)cc(F)c2)C(CF)NC(=S)N1 (stereo not shown) [69′, 4-fluoromethyl-6-methyl-2-thioxo-1,2,3,4-tetrahydro-pyrimidine-5-carboxylic acid 3,5-difluoro-benzyl ester]",pIC50,[1],5.52
same,pIC50,[2],5.00 to 6.00
"COc1ccccc1CCOC(=O)C1=C(C)NC(=S)NC1CO (stereo not shown) [9″, 4-hydroxymethyl-6-methyl-2-thioxo-1,2,3,4-tetrahydro-pyrimidine-5-carboxylic acid 2-(2-methoxy-phenyl)-ethyl ester]",pIC50,[1],4.70
same,pIC50,[2],4.70 to 5.00
"CC1=C(C(=O)OCCc2ccsc2F)CNC(=S)N1 [Compound 249, 6-methyl-2-thioxo-1,2,3,4-tetrahydro-pyrimidine-5-carboxylic acid 2-(2-fluoro-thiophen-3-yl)-ethyl ester]",pIC50,[1],> 6.40
same,pIC50,[2],> 6.00
